Source: US6465168B1, “Methods and apparatus for the inactivation of viruses” (priority 1992, dated 2002)
Where two headings read alike, the source gives them in different places. Marks after values point to notes of the source that are not given here.

What was measured:
murine-C retrovirus = assay: Critical fluid viral inactivation of murine-C retrovirus in serum, polybrene enhanced titer on NIH3T3 cells; format: cell-based
Excerpt: (§1) In its normal operating mode, valves PV-4 and PV-5 are opened and an aliquot of test solution is aseptically introduced through the 3-way valve PV-4 using a sterile syringe and a presterilized loading tube. The 3-way valve PV-4 is then turned so that the critical fluid recycle line communicates with the soaking chamber, and the vent valve PV-5 is closed. PV-1 is then opened, supplying the solvent to the compressor P-1. The compressor is turned on and immediately thereafter valves PV-2 and PV-3 are opened, introducing the critical fluid solvent into the high pressure circulation loop. When operating pressure is attained, the compressor is turned off and valve PV-3 is closed.
(§2) After system stabilization, the circulation pump P-2 is turned on and its speed adjusted, typically to 75% of maximum speed or 6,750 rpm. P-2 draws both the proteinaceous product from the bottom of the soaking chamber and the critical fluid phase from the top of the same unit. The mixture is then pumped counter-clockwise, mixed by static in-line mixer and returned to the soaking chamber. After mixing for a defined residence time, P-2 is turned off. The decompression valve PV-7 is then fully opened to depressurize the soaking chamber and the high pressure circulation loop. The rate of decompression was approximately 500 psig per second when PV-7 is a ¼″ ball valve. By using a back-pressure regulator instead of a ¼″ ball valve as the decompression valve PV-7, the rate of decompression can be controlled. In some experiments, the rate of decompression was controlled to approximately 2,000 psig per minute.
(§3) In the examples described herein, samples of a recombinant murine C-type retrovirus were prepared as follows. […] Clonal cell lines stably expressing the transfected DNA were derived and maintained as virus-producing stocks. By packaging the RNA produced by the transfected DNA into the defective particles, these cells produce infectious particles that are entirely normal with respect to overall structure, stability, and mode of infection, but containing the plasmid-derived rather that the wild type, genetic material (Mann et al., Ibid).
(§4) Because the LNCX sequences contain the antibiotic resistance gene neo and a suitable promoter, infection of cells with the recombinant retrovirus confers upon the cells resistance to the antibiotic Geneticin (G418). Conferral of Geneticin-resistance onto cells and their progeny was therefore used as the property by which virus titers were determined. Specifically, virus stocks were prepared by culturing the virus-producing cells at high density (50% confluence) in fresh culture medium (Dulebecco's modified Eagle's medium supplemented with 10% iron-supplemented calf serum [Hyclone, Inc., Logan, UT], glutamine [1 mM], penicillin [100 U/ml] and streptomycin [100 μg/ml] for 18 hours at 37 C. in a humidified 5% CO2 atmosphere. Culture medium was harvested and passed through a 0.2 micron filter, divided into aliquots, quick frozen using a dry-ice/ethanol bath and stored at −80° C. Immediately before use, samples were warmed in a 37 C. water bath until just thawed and held on ice. Aliquots of a single virus preparation were used for the examples described below.
(§5) After virus-containing samples were mixed with other materials and treated as described in each of the examples, they were returned to ice, and assayed within 8 hours. Titer tests were performed by seeding 35 mm-style culture dishes with a mouse fibroblast line (NIH3T3 cells) in 3 ml of the culture medium described above at a density of 10,000 cells per well the evening before the assay was to be performed. Virus samples were added to the culture medium over the cells at various dilution from 10^0 (undiluted) to 10^−6.

murine C-type retrovirus = format: cell-based; conditions: culture medium; for Titer: control 5,000; for effectiveness in inactivating the retrovirus: supercritical fluid, approximately 3,000 psig and 40° C.
Excerpt: as §1, §2, §3, §4, §5

[1] = runs CFI-28 to CFI-30: 3,000 psig, 41 C., 30 mins, serum
[2] = runs CFI-28 to CFI-30: 3,000 psig, 41 C., 30 mins, serum, polybrene, control 65,000
[3] = runs CFI-33 (Fr-22), CFI-35 (N2): 3,000 psig, 41 C., 60 mins, serum
[4] = runs CFI-33 (Fr-22), CFI-35 (N2): 3,000 psig, 41 C., 60 mins, serum, control 20,000, 5 = detection limit
[5] = run CFI-21: 3,250 psig, 41 C., 30 mins
[6] = run CFI-18: 2,560 psig, 43 C., 30 mins
[7] = run CFI-19: 2,690 psig, 41 C., 5 mins

For `CCC` [C3H8, propane], the “- log10 Reduction” value (murine-C retrovirus; [1]) was 1.4 and the Titer (murine-C retrovirus; [2]) was 2,500 cfu/2.3 ml.

`FC(F)Cl` [Fr-22, chlorodifluoromethane] was tested, and the “reduction of viral activity” value (murine-C retrovirus; after 30 minutes of contacting the serum, approximately 3,000 psig and 40° C.) was ~3.2 log orders of magnitude, the “time to eliminate viral activity, within the detection limits of the assay” value (murine-C retrovirus; approximately 3,000 psig and 40° C., serum) was “within five minutes” and the “- log10 Reduction” value (murine-C retrovirus; run CFI-31: 3,000 psig, 40 C., 5 mins, serum) was >3.6. For the same compound, the Titer (murine-C retrovirus; run CFI-31: 3,000 psig, 40 C., 5 mins, serum, control 20,000, 5 = detection limit) was <5* cfu/2.0 ml, the “- log10 Reduction” value (murine-C retrovirus; run CFI-32: 3,000 psig, 40 C., 15 mins, serum) was 3.6 and the Titer (murine-C retrovirus; run CFI-32: 3,000 psig, 40 C., 15 mins, serum, control 20,000) was 5 cfu/2.0 ml. For the same compound, the “- log10 Reduction” value (murine-C retrovirus; [1]) was 3.2, the Titer (murine-C retrovirus; [2]) was 40 cfu/2.3 ml and the “- log10 Reduction” value (murine-C retrovirus; [3]) was >3.6. For the same compound, the Titer (murine-C retrovirus; [4]) was <5* cfu/2.0 ml.

In the case of `N#N` [N2, nitrogen], the “- log10 Reduction” value (murine C-type retrovirus; [5]) is reported as 0.2, the Titer (murine C-type retrovirus; [5]) is reported as 3,000 cfu/2.3 ml and the “effectiveness in inactivating the retrovirus” value (murine C-type retrovirus) is reported as “relatively ineffective”. For the same compound, the “- log10 Reduction” value (murine-C retrovirus; [3]) was 0.7 and the Titer (murine-C retrovirus; [4]) was 3,750 cfu/2.0 ml.

With `[N-]=[N+]=O` [N2O, nitrous oxide] the “- log10 Reduction” value (murine C-type retrovirus; [6]) was 2.7, the Titer (murine C-type retrovirus; [6]) was 10 cfu/2.3 ml and the “- log10 Reduction” value (murine C-type retrovirus; [7]) was 2.0. The Titer (murine C-type retrovirus; [7]) was 50 cfu/2.3 ml, the “- log10 Reduction” value (murine C-type retrovirus; run CFI-20: 3,180 psig, 41 C., 121 mins) was >3.0 and the Titer (murine C-type retrovirus; run CFI-20: 3,180 psig, 41 C., 121 mins, 5 = detection limit) was <5* cfu/2.3 ml. For the same compound, the “effectiveness in inactivating the retrovirus” value (murine C-type retrovirus) was “very effective”, the “reduction of virus activity” value (murine-C retrovirus; 3,000 psig and 40° C., residence time 30 minutes, serum (CFI-27)) was 1.4 logs and the “inactivation of the viral population, within the detection limits of the assay” value (murine-C retrovirus; 5,000 psig and 40° C., residence time 30 minutes, serum (CFI-34)) was “inactivated the entire viral population”. The “- log10 Reduction” value (murine-C retrovirus; run CFI-26: 3,000 psig, 60 C., 30 mins, serum) was >4.1, the Titer (murine-C retrovirus; run CFI-26: 3,000 psig, 60 C., 30 mins, serum, polybrene, 40 C. control 65,000, 5 = detection limit) was <5* cfu/2.3 ml and the “- log10 Reduction” value (murine-C retrovirus; run CFI-27: 3,000 psig, 40 C., 30 mins, serum) was 1.4. The Titer (murine-C retrovirus; run CFI-27: 3,000 psig, 40 C., 30 mins, serum, polybrene, control 65,000) was 3,000 cfu/2.3 ml, the “- log10 Reduction” value (murine-C retrovirus; run CFI-34: 5,000 psig, 41 C., 30 mins, serum) was >3.6 and the Titer (murine-C retrovirus; run CFI-34: 5,000 psig, 41 C., 30 mins, serum, control 20,000, 5 = detection limit) was <5* cfu/2.0 ml. For the same compound, the “reduction of effectiveness by the presence of protein” value (murine-C retrovirus; serum (CFI-27) compared with culture medium (CFI-18)) was “one to two orders of magnitude”.

With `CCO` [ethanol] the “impact on the effect of supercritical nitrous oxide” value (murine-C retrovirus; 2 mole % ethanol cosolvent, approximately 3,000 psig, 40° C., 30 minutes, serum) was “little or no impact” and the “effect on the titer” value (murine-C retrovirus; control without critical fluid, 40° C., 2 mole % ethanol in the serum) was “does not affect the titer”.
